Read-outs that look alike come from different tables or passages of the source.

A word on the IC50: it is the point on the concentration scale where inhibition reaches its midpoint.

For test [1], the target named is T1, AChE (Rattus norvegicus, UniProt P37136).
T1 construct: AChE was derived from the SD rat brains by homogenizing the brain with 20-fold saline solution; from tissue; host or cells: SD rat brain homogenate (supernatant after 800 x g)
Nature of the test: In vitro AChE inhibitory assay (Ellman's method). The format is biochemical. How it is done:
The AChE inhibitory activity of DL0410 derivatives was assessed by determining the hydrolysis product of Acetylthiocholine iodide (ASCh) using the Ellman’s method. 5,5′-Dithiobis (2-nitrobenzoic acid) (DTNB), and the substrate ASCh were purchased from Sigma Aldrich. AChE was derived from the SD rat brains by homogenizing the brain with 20-fold saline solution, and then centrifuged at 800× g for 20 min at 4 °C. To acquire the inhibition of AChE activity, five serial dilutions of samples were measured. A Spectra Max M5 microplate reader (Molecular Devices, Sunnyvale, CA, USA) was utilized for the assay for AChE reaction system with 96-well plates in 0.05 M phosphate-buffered solution (PBS). The reaction system includes 10 μL sample, 20 μL AChE solution, 60 μL 3.75 mM ASCh, and 80 μL 0.25 mg/mL DTNB. It took 60 min at 37 °C for incubation, and the absorbance intensity of AChE reaction system was quantified at 412 nm.
In general terms: In Ellman's method for cholinesterases, released thiocholine reacts with DTNB.

Test [2] concerns the target T2, BuChE (Homo sapiens, UniProt P06276).
T2 construct: BuChE was obtained from human plasma (purchased from Beijing Red Cross Blood Center China); tissue Beijing Red Cross Blood Center China; host or cells: human plasma, diluted 200-fold with 0.05 M PBS
Nature of the test: In vitro BuChE inhibitory assay (Ellman-type, human plasma). The note with it: BuChE from human plasma, BuSCh substrate, 60 min, 37 °C. The format is biochemical. Here is the method: BuChE was obtained from human plasma (purchased from Beijing Red Cross Blood Center China). Before utilization, human plasma was diluted 200-fold with 0.05 M PBS. Five serial dilutions of samples are determined to obtain BuChE inhibitory activity. The BuChE reaction system is similar to the assay above, including 10 μL samples, 40 μL diluted plasma sample, 70 μL 7.5 mM S-butyrylthiocholine (BuSCh), and 80 μL 0.25 mg/mL DTNB. After incubation at 37 °C for 60 min, the absorbance intensity of the system was measured at wavelength 412 nm.

[3] abbreviates: AChE from SD rat brain homogenate, ASCh substrate, 60 min, 37 °C, read-out: IC50(μM) AChE.

T1 sequence (P37136 32-614): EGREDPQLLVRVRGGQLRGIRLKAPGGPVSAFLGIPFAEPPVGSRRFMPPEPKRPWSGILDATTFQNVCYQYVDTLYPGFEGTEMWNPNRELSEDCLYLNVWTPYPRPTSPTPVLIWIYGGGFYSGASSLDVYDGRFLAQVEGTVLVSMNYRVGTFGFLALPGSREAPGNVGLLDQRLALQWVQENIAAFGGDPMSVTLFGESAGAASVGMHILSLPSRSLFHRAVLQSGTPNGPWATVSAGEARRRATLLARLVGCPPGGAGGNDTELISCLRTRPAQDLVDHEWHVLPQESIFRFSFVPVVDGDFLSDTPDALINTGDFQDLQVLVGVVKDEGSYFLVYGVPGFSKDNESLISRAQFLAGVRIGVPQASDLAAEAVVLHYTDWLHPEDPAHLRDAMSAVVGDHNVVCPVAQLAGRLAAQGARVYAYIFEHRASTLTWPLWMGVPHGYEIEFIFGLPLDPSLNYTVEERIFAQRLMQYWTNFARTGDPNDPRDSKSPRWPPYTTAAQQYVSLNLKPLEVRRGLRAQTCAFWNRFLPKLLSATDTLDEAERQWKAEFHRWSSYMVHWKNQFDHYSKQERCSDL
T2 sequence (P06276 29-602): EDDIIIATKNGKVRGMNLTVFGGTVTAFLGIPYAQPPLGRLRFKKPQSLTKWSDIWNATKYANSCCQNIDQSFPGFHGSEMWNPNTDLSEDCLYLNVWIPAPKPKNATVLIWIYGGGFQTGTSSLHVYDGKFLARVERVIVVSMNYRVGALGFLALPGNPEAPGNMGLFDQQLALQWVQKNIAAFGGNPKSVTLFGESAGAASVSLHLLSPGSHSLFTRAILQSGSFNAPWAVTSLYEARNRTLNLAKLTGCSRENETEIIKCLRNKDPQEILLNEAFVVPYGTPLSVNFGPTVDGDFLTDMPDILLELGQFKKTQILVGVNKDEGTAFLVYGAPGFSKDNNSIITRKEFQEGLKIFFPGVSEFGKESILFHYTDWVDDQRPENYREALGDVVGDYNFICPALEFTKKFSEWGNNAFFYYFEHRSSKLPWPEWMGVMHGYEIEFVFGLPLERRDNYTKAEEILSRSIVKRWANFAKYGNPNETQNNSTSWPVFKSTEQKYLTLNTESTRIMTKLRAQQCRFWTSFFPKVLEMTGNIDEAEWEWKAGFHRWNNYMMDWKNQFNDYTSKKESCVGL

With `O=C(CCN1CCCCC1)c1ccc(-c2ccc(C(=O)CN3CCCCC3)cc2)cc1` [Compound 1-6], the IC50 in test [1] (setting [3]) was 3.32 µM; in test [2] (read-out: IC50(μM) BuChE), 4.87 µM.

Regarding `CC(C)(c1ccc(C(=O)CN2CCCCC2)cc1)c1ccc(C(=O)CN2CCCCC2)cc1` [Compound 4-4], the concentration for half-maximal inhibition (IC50) in test [1] (setting [3]) is 17.4 µM; in test [2] (read-out: IC50(μM) BuChE) it was 2.93 µM.

As for `CN(CCC(=O)c1ccc(-c2ccc(C(=O)CCN(C)Cc3ccccc3)cc2)cc1)Cc1ccccc1` [Compound 1-17], the IC50 in test [1] (setting [3]) was found to be 3.33 µM; in test [2] (read-out: IC50(μM) BuChE), 6.56 µM.

Take `CN(C)CCC(=O)c1ccc(C(C)(C)c2ccc(C(=O)CCN(C)C)cc2)cc1` [Compound 4-1]: the figures for the IC50 in test [1] (setting [3]) and in test [2] (read-out: IC50(μM) BuChE) were 4.89 µM and 6 µM, respectively.

Regarding `O=C(CCN1CCCCC1)c1ccc(Sc2ccc(C(=O)CCN3CCCCC3)cc2)cc1` [Compound 5-2], the 50% inhibitory concentration (IC50) in test [1] (setting [3]) was found to be 3.89 µM; in test [2] (read-out: IC50(μM) BuChE), 3.44 µM.

In the case of `CCN(C)C(=O)Oc1ccc(-c2ccc(C(=O)CCN3CCCCC3)cc2)cc1` [Compound 7-5], the half-inhibitory concentration (IC50) in test [1] stood at 3.35 µM; in test [2] (IC50(μM) BuChE) it was 0.2 µM.

For `CN(C)CC(=O)c1ccc(C(C)(C)c2ccc(C(=O)CN(C)C)cc2)cc1` [Compound 4-2], the results for the 50% inhibitory concentration (IC50) in test [1] (setting [3]) and in test [2] (read-out: IC50(μM) BuChE) were 54.4 µM and 5.95 µM, respectively.

Consider `O=C(CCN1CCCCC1)c1ccc([S+]([O-])c2ccc(C(=O)CCN3CCCCC3)cc2)cc1` [Compound 5-3], for which the IC50 in test [1] (setting [3]) is 14.1 µM; in test [2] (read-out: IC50(μM) BuChE), above 200 µM.

As for `O=C(CN1CCCCC1)c1ccc(CCc2ccc(C(=O)CN3CCCCC3)cc2)cc1` [Compound 2-1], in test [1] (setting [3]), the IC50 was determined as 75.5 µM.

As for `CC1CCN(CC(=O)c2ccc(-c3ccc(C(=O)CN4CCC(C)CC4)cc3)cc2)CC1` [Compound 1-7], the IC50 turned out to be 49.1 µM in test [1] (setting [3]) and 36.6 µM in test [2] (read-out: IC50(μM) BuChE).

Consider `CN(C)CCCCC(=O)c1ccc(CCc2ccc(C(=O)CCCCN(C)C)cc2)cc1` [Compound 2-10], for which the IC50 in test [1] (setting [3]) is 3.96 µM; in test [2] (read-out: IC50(μM) BuChE) it was 2.77 µM.

Take `O=C(CCN1CCCCC1)c1ccc2c(c1)c1cc(C(=O)CCN3CCCCC3)ccc1n2C(=O)CCN1CCCCC1` [Compound 7-7]: the IC50 in test [1] (setting [3]) came out at 1.42 µM; in test [2] (read-out: IC50(μM) BuChE), 4.79 µM.

For `O=C(CCN1CCCCC1)c1ccc(Oc2ccc(C(=O)CCN3CCCCC3)cc2)cc1` [Compound 5-1], the IC50 in test [1] (setting [3]) came out at 0.89 µM; in test [2] (read-out: IC50(μM) BuChE) it was 5.68 µM.

With `O=C(CCCN1CCCCC1)c1ccc(-c2ccc(C(=O)CCN3CCCCC3)cc2)cc1` [Compound 1-5], the IC50 in test [1] (setting [3]) stood at 0.41 µM; in test [2] (read-out: IC50(μM) BuChE), 1.88 µM.

`O=C(CCN1CCCCC1)c1ccc(Cc2ccc(C(=O)CCN3CCCCC3)cc2)cc1` [Compound 3-1]: the IC50 in test [1] (setting [3]) came out at 4.11 µM; in test [2] (read-out: IC50(μM) BuChE), 4.2 µM.

Consider `O=C(CCN1CCCCC1)c1ccc2sc3ccc(C(=O)CCN4CCCCC4)cc3c2c1` [Compound 6-2], for which the IC50 in test [1] (setting [3]) came out at 2.03 µM; in test [2] (read-out: IC50(μM) BuChE) it was 1.71 µM.

For `O=C(CCCCN1CCC1)c1ccc(CCc2ccc(C(=O)CCCCN3CCC3)cc2)cc1` [Compound 2-6], the IC50 was 12.2 µM in test [1] (setting [3]) and above 200 µM in test [2] (read-out: IC50(μM) BuChE).

Take `O=C(CCN1CCOCC1)c1ccc(-c2ccc(C(=O)CCN3CCOCC3)cc2)cc1` [Compound 1-15]: in test [2] (read-out: IC50(μM) BuChE), the IC50 is below 1 µM.

In the case of `CN(C)CCC(=O)c1ccc(-c2ccc(C(=O)CCN(C)C)cc2)cc1` [Compound 1-8], the IC50 in test [2] (read-out: IC50(μM) BuChE) was below 1 µM.

Take `CCN(C)C(=O)Oc1ccc(-c2ccc(OC(=O)N(C)CC)cc2)cc1` [Compound 7-3]: the IC50 in test [1] was determined as 34.1 µM; in test [2] (IC50(μM) BuChE), 0.06 µM.

For `CN(C)CCC(=O)c1ccc(Cc2ccc(C(=O)CCN(C)C)cc2)cc1` [Compound 3-5], the results for the IC50 in test [1] (setting [3]) and in test [2] (read-out: IC50(μM) BuChE) were 3.32 µM and 1.72 µM, respectively.

Take `O=C(CCN1CCOCC1)c1ccc(Cc2ccc(C(=O)CCN3CCOCC3)cc2)cc1` [Compound 3-2]: the IC50 in test [1] (setting [3]) worked out at 7.09 µM; in test [2] (read-out: IC50(μM) BuChE), 7.65 µM.

For `O=C(CCNC1CCCCC1)c1ccc(-c2ccc(C(=O)CCNC3CCCCC3)cc2)cc1` [Compound 1-16], the IC50 in test [1] (setting [3]) was 2.15 µM; in test [2] (read-out: IC50(μM) BuChE) it was 1.91 µM.

On to `CN1CCN(CCC(=O)c2ccc(Cc3ccc(C(=O)CCN4CCN(C)CC4)cc3)cc2)CC1` [Compound 3-4], for which the values for the IC50 in test [1] (setting [3]) and in test [2] (read-out: IC50(μM) BuChE) were 7.55 µM and 24.4 µM, respectively.

On to `COc1ccc2[nH]cc(CCNCC(=O)c3ccc(-c4ccc(C(=O)CNCCc5c[nH]c6ccc(OC)cc56)cc4)cc3)c2c1` [Compound 1-18], for which the results for the IC50 in test [1] (setting [3]) and in test [2] (read-out: IC50(μM) BuChE) were 9.52 µM and above 200 µM, respectively.

Take `CCN(CC)CCC(=O)c1ccc(-c2ccc(C(=O)CCN(CC)CC)cc2)cc1` [Compound 1-9]: in test [2] (read-out: IC50(μM) BuChE), the IC50 is below 1 µM.

Turning to `O=C(CCN1CCC(N2CCCCC2)CC1)c1ccc(-c2ccc(C(=O)CCN3CCC(N4CCCCC4)CC3)cc2)cc1` [Compound 1-19], the IC50 was 0.25 µM in test [1] (setting [3]) and above 200 µM in test [2] (read-out: IC50(μM) BuChE).

Take `CC(C)(c1ccc(C(=O)CCN2CCOCC2)cc1)c1ccc(C(=O)CCN2CCOCC2)cc1` [Compound 4-5]: the figures for the IC50 in test [1] (setting [3]) and in test [2] (read-out: IC50(μM) BuChE) were 15.7 µM and 16.3 µM, respectively.

Consider `O=C(c1ccc(-c2ccc(C(=O)N3CCCCC3)cc2)cc1)N1CCCCC1` [Compound 1-2], for which the half-maximal inhibitory concentration (IC50) turned out to be 0.84 µM in test [1] (setting [3]) and 2.22 µM in test [2] (read-out: IC50(μM) BuChE).

Regarding `C=C(CN1CCCCC1)C(=O)c1ccc(-c2ccc(C(=O)C(=C)CN3CCCCC3)cc2)cc1` [Compound 7-2], the results for the IC50 in test [1] (setting [3]) and in test [2] (read-out: IC50(μM) BuChE) were 17.1 µM and 1.55 µM, respectively.

In the case of `CC(C)(c1ccc(C(=O)CCN2CCCCC2)cc1)c1ccc(C(=O)CCN2CCCCC2)cc1` [Compound 4-3], the figures for the half-inhibitory concentration (IC50) in test [1] (setting [3]) and in test [2] (read-out: IC50(μM) BuChE) were 3.07 µM and 3.09 µM, respectively.

As to `O=C(CCN1CCCCC1)c1ccc(CCc2ccc(C(=O)CCN3CCCCC3)cc2)cc1` [Compound 2-3], the IC50 in test [2] (read-out: IC50(μM) BuChE) amounted to 3.41 µM.

On to `O=C(COCCN1CCCCC1)c1ccc(-c2ccc(C(=O)OCCN3CCCCC3)cc2)cc1` [Compound 7-4], for which the IC50 is 18.5 µM in test [1] (setting [3]) and above 200 µM in test [2] (read-out: IC50(μM) BuChE).

In the case of `CN1CCN(CC(=O)c2ccc(Cc3ccc(C(=O)CN4CCN(C)CC4)cc3)cc2)CC1` [Compound 3-3], the IC50 in test [1] (setting [3]) was found to be 48.5 µM; in test [2] (read-out: IC50(μM) BuChE) it was 40 µM.

The values above are taken from PMC6152156 (Molecules : A Journal of Synthetic Chemistry and Natural …, 2017).
